Laboratory results from article PMC3359160, “Dipeptidyl peptidase IV, aminopeptidase N and DPIV/APN-like proteases in cerebral ischemia” (Journal of Neuroinflammation, 2012).

Key:
T cells = test system: T cells; design: method as in Patent EP09169269; settings: ref Patent EP09169269; read-out: IC50, proliferation of T cells; cited from earlier work
DPIV = test system: DPIV; design: method as in Patent EP09169269; settings: ref Patent EP09169269; cited from earlier work
mononuclear cells = test system: mononuclear cells; design: method as in Patent EP09169269; settings: ref Patent EP09169269; read-out: IC50, proliferation of mononuclear cells; cited from earlier work
[1] = test system: eMCAO-induced infarct volume; test: Effect of protease inhibitors on infarct volumes after eMCAO (transient focal cerebral ischemia); assay type: in vivo, male Sprague-Dawley rats; settings: rat, icv f.c. 10 μM; for effect on striatal lesion sizes / effect on eMCAO-induced infarct volumes in ipsilateral cortices: 7 days post eMCAO; for reduction of eMCAO-induced infarct volume in ipsilateral cortex compared to vehicle: mean ± S.E.M.
Method: Studies were performed on male Sprague-Dawley rats (250-280 g) obtained from Harlan Winkelmann (Borchen, Germany). Animals were maintained under constant environmental conditions with an ambient temperature of 21 ± 2°C and relative humidity of 40%. They were housed with a 12-h light-dark cycle, food and water were given ad libitum. […] Animals were anesthetized with halothane in a mixture of nitrous oxide/oxygen (70:30) and maintained with 2-3% halothane during the following procedures: rats were placed in a Kopf stereotaxic frame and further anesthetized via a nose cone. For the induction of eMCAO, a burr hole (1 mm diameter) was drilled into the skull (coordinates: anterior 0.50 mm from bregma, lateral 5.2 mm to […]). After careful opening of the dura, a 29-gauge cannula was lowered 7.5 mm below the dura according to the rat brain atlas of Paxinos and Watson. […] After further 5 min, the cannula was slowly withdrawn. Throughout the operation procedure, rats were kept at 37 ± 0.5°C using a thermostatically controlled heating blanket attached to a rectal thermometer. The animals were then placed under a heating lamp to maintain normothermia until recovery. In order to perform the icv application of different protease inhibitors under halothane anesthesia, a second burr hole was drilled into the skull (coordinates: posterior 0.80 mm from bregma, lateral 1.5 mm to […]). Then, a 29-gauge cannula was lowered 4.5 mm below the dura. The icv injection of IPC1755 (2 μl of a 10 mmol/l PBS/DMSO solution, pH 7.4, f.c. 10 μM) was performed according to one of the following time schedules; […] According to legal requirements of the German animal law, animals were kept under anesthesia during each drug injection. Control rats were treated in the same way, except that the corresponding vehicle solution instead of the drug was injected. Thus, potential protective effects of halothane can be excluded. Rats were maintained at 37 ± 0.5°C throughout the operation procedures. In parallel, the body temperature was monitored using a rectal temperature sensor. Subsequently, the animals were placed into an incubator to maintain normothermia until recovery from anesthesia and then returned into their home cage. After a survival time of 7 days after eMCAO, animals were anesthetized by intraperitonial injection of pentobarbital and transcardially perfusion-fixed with saline followed by 4% paraformaldehyde in 0.1 M PBS (pH 7.4). Brains were then removed carefully, post-fixed in the same fixative for 2 h, and placed in a rodent brain matrix (rat, ASI Instruments, Warren, MI, USA). 1-mm coronal brain slices were cut with a razor blade at 14 predetermined anterior-posterior levels. After cryoprotection in 30% sucrose, slices were rapidly frozen in isopentane and stored at -80°C. Four to five cryostat sections (30 μm) from each brain slice were cut in a cryo microtome and stained with toluidine blue. The extent of cortical and striatal damage following ischemic injury was documented with microphotographic images from Nissl-stained slices showing the anterior-posterior level according to the brain atlas of Paxinos and Watson. The volumes of cortical and striatal infarct lesions were measured at eight predetermined anterior-posterior levels by an operator blinded to the group composition. Three-dimensional lesion sizes were calculated by integration of two-dimensional lesion sizes at each stereotactic level and the distances between the various levels. Image analysis was performed with an Eclipse TE 3000 microscope (Nikon, Düsseldorf, Germany), equipped with a 4x objective, and the Lucia software package (Version 4.2.1., Nikon). Data were statistically analyzed by non-paired Student's t-test and given as mean ± S.E.M.

DPII = test system: DPII; design: method as in Patent EP09169269; settings: ref Patent EP09169269; cited from earlier work
cAAP = test system: cAAP; design: method as in Patent EP09169269; settings: ref Patent EP09169269; cited from earlier work
APN = test system: APN; design: method as in Patent EP09169269; settings: ref Patent EP09169269; cited from earlier work
DP8/9 = test system: DP8/9; design: method as in Patent EP09169269; settings: ref Patent EP09169269; cited from earlier work
[2] = in parallel to eMCAO and 6 h and 24 h post insult, analyzed 7 days post eMCAO
[3] = in parallel to eMCAO and 6 h and 24 h post insult

## CCCCCCCCCCCCCCCC(=O)OC(C(=O)NCC(C)(C)CNC(=O)CC(N)Cc1cc(F)ccc1F)C(N)Cc1ccccc1 (stereo not shown) [IPC1755]
T cells
  IC50: 34 µM
DPIV
  IC50: 0.06 µM
Mononuclear cells
  IC50: 36 µM
[1]; all three time schedules (Figure 7C columns b-d)
  effect on striatal lesion sizes: did not affect striatal lesion sizes
[1]; exclusively 6 and 24 h post eMCAO, analyzed 7 days post eMCAO
  cortical lesion size, % of control damage of vehicle-treated animals: 107.5 ± 12.8%
[1]; [2]
  reduction of eMCAO-induced infarct volume in ipsilateral cortex compared to vehicle: 48.8 ± 7.9%
DPII
  IC50: 166 µM
cAAP
  IC50: 0.02 µM
APN
  IC50: 0.03 µM
DP8/9
  IC50: 85 µM

## CC[C@@H](C)[C@H](N)C(=O)N1Cc2ccccc2C1.Cl [selective DP8/9 inhibitor, (2S,3R)-2-(2-amino-3-methyl-1-oxopentan-1-yl)-1,3-dihydro-2H-isoindole hydrochloride]
[1]; [3]
  effect on eMCAO-induced infarct volumes in ipsilateral cortices: did not decrease
  effect on striatal lesion sizes: neither sitagliptin nor selective DPII or DP8/9 inhibition affected

## NCC[C@H](N)C(=O)N1CCCCC1 [selective DPII inhibitor, L-2,4-Diaminobutyrylpiperidinamide]
[1]; [3]
  effect on eMCAO-induced infarct volumes in ipsilateral cortices: did not decrease
  effect on striatal lesion sizes: neither sitagliptin nor selective DPII or DP8/9 inhibition affected

## N[C@@H](CC(=O)N1CCn2c(nnc2C(F)(F)F)C1)Cc1cc(F)c(F)cc1F [sitagliptin, (R)-3-Amino-1-[3-(trifluormethyl)-5,6,7,8-tetrahydro[1,2, 4]triazol[4,3-a]pyrazin-7-yl]-4-(2,4,5-trifluorphenyl)butan-1-on]
[1]; [3]
  effect on striatal lesion sizes: neither sitagliptin nor selective DPII or DP8/9 inhibition affected
[1]; [2]
  reduction of eMCAO-induced infarct volume in ipsilateral cortex compared to vehicle: 21.1 ± 5.8%
